Reference: patent publication US8802597B2, “Herbicidal pyrimidines” (E I du Pont de Nemours and Company, priority 2003, dated 2014)

Tests used:
Assay in all cases: Test D pre/postemergence
Format in all cases: in vivo
Details in all cases: scale 0 to 100 (100 = complete control)
[1] = tested on: pigweed (Amaranthus retroflexus)
Description: (§1) Seeds of plant species selected from catchweed bedstraw (galium; Galium aparine), common chickweed (Stellaria media), kochia (Kochia scoparia), lambsquarters (Chenopodium album), pigweed (Amaranthus retroflexus), Russian thistle (Salsola kali), wild buckwheat (Polygonum convolvulus), wild mustard (Sinapis arvensis), winter barley (Hordeum vulgare), and wheat (Triticum aestivum) were planted and treated preemergence with test chemicals formulated in a non-phytotoxic solvent mixture which included a surfactant.
(§2) At the same time, plants selected from these crop and weed species were treated with postemergence applications of some of the test chemicals formulated in the same manner. Plants ranged in height from 2 to 18 cm (1- to 4-leaf stage) for postemergence treatments. Treated plants and controls were maintained in a controlled growth environment for 15 to 25 days after which time all species were compared to controls and visually evaluated. Plant response ratings, summarized in Table D, are based on a scale of 0 to 100 where 0 is no effect and 100 is complete control. A dash (-) response means no test result.

[2] = tested on: common chickweed (Stellaria media)
Description: as §1, §2

[3] = tested on: wild mustard (Sinapis arvensis)
Description: as §1, §2

[4] = tested on: wild buckwheat (Polygonum convolvulus)
Description: as §1, §2

[5] = tested on: catchweed bedstraw (galium; Galium aparine)
Description: as §1, §2

[6] = tested on: lambsquarters (Chenopodium album)
Description: as §1, §2

kochia (Kochia scoparia) = tested on: kochia (Kochia scoparia)
Description: as §1, §2

[7] = tested on: wheat (Triticum aestivum)
Description: as §1, §2

[8] = tested on: Russian thistle (Salsola kali)
Description: as §1, §2

## COC(=O)c1nc(C2CC2C)nc(N)c1Br (stereo not drawn) [Compound 28]
[1]; Postemergence, 62 g ai/ha
  Plant response rating, Pigweed: 60
[1]; Postemergence, 125 g ai/ha
  Plant response rating, Pigweed: 60
[1]; Postemergence, 250 g ai/ha
  Plant response rating, Pigweed: 70
[1]; Preemergence, 62 g ai/ha
  Plant response rating, Pigweed: 45
[1]; Preemergence, 250 g ai/ha
  Plant response rating, Pigweed: 80
[2]; Postemergence, 62 g ai/ha
  Plant response rating, Chickweed: 65
[2]; Postemergence, 125 g ai/ha
  Plant response rating, Chickweed: 65
[2]; Postemergence, 250 g ai/ha
  Plant response rating, Chickweed: 65
[2]; Preemergence, 62 g ai/ha
  Plant response rating, Chickweed: 60
[2]; Preemergence, 125 g ai/ha
  Plant response rating, Chickweed: 60
[2]; Preemergence, 250 g ai/ha
  Plant response rating, Chickweed: 60
[3]; Postemergence, 62 g ai/ha
  Plant response rating, Mustard, Wild: 45
[3]; Postemergence, 125 g ai/ha
  Plant response rating, Mustard, Wild: 60
[3]; Postemergence, 250 g ai/ha
  Plant response rating, Mustard, Wild: 60
[3]; Preemergence, 62 g ai/ha
  Plant response rating, Mustard, Wild: 60
[3]; Preemergence, 125 g ai/ha
  Plant response rating, Mustard, Wild: 60
[3]; Preemergence, 250 g ai/ha
  Plant response rating, Mustard, Wild: 60
[4]; Postemergence, 62 g ai/ha
  Plant response rating, Buckwheat, Wild: 35
[4]; Postemergence, 125 g ai/ha
  Plant response rating, Buckwheat, Wild: 55
[4]; Postemergence, 250 g ai/ha
  Plant response rating, Buckwheat, Wild: 60
[4]; Preemergence, 62 g ai/ha
  Plant response rating, Buckwheat, Wild: 45
[4]; Preemergence, 125 g ai/ha
  Plant response rating, Buckwheat, Wild: 45
[4]; Preemergence, 250 g ai/ha
  Plant response rating, Buckwheat, Wild: 60
[5]; Postemergence, 62 g ai/ha
  Plant response rating, Galium: 100
[5]; Postemergence, 250 g ai/ha
  Plant response rating, Galium: 100
[5]; Preemergence, 62 g ai/ha
  Plant response rating, Galium: 100
[5]; Preemergence, 125 g ai/ha
  Plant response rating, Galium: 100
[5]; Preemergence, 250 g ai/ha
  Plant response rating, Galium: 100
[6]; Postemergence, 62 g ai/ha
  Plant response rating, Lambsquarters: 65
[6]; Postemergence, 125 g ai/ha
  Plant response rating, Lambsquarters: 70
[6]; Postemergence, 250 g ai/ha
  Plant response rating, Lambsquarters: 75
[6]; Preemergence, 62 g ai/ha
  Plant response rating, Lambsquarters: 60
[6]; Preemergence, 125 g ai/ha
  Plant response rating, Lambsquarters: 60
[6]; Preemergence, 250 g ai/ha
  Plant response rating, Lambsquarters: 60
Kochia (Kochia scoparia); Postemergence, 62 g ai/ha
  Plant response rating, Kochia: 70
Kochia (Kochia scoparia); Postemergence, 125 g ai/ha
  Plant response rating, Kochia: 75
Kochia (Kochia scoparia); Postemergence, 250 g ai/ha
  Plant response rating, Kochia: 75
Kochia (Kochia scoparia); Preemergence, 62 g ai/ha
  Plant response rating, Kochia: 45
Kochia (Kochia scoparia); Preemergence, 125 g ai/ha
  Plant response rating, Kochia: 80
Kochia (Kochia scoparia); Preemergence, 250 g ai/ha
  Plant response rating, Kochia: 100
[7]; Postemergence, 62 g ai/ha
  Plant response rating, Wheat: 20
[7]; Postemergence, 125 g ai/ha
  Plant response rating, Wheat: 35
[7]; Postemergence, 250 g ai/ha
  Plant response rating, Wheat: 35
[7]; Preemergence, 62 g ai/ha
  Plant response rating, Wheat: 20
[7]; Preemergence, 125 g ai/ha
  Plant response rating, Wheat: 35
[7]; Preemergence, 250 g ai/ha
  Plant response rating, Wheat: 35
[8]; Postemergence, 62 g ai/ha
  Plant response rating, Russian Thistle: 65
[8]; Postemergence, 125 g ai/ha
  Plant response rating, Russian Thistle: 70
[8]; Postemergence, 250 g ai/ha
  Plant response rating, Russian Thistle: 70
[8]; Preemergence, 62 g ai/ha
  Plant response rating, Russian Thistle: 45
[8]; Preemergence, 125 g ai/ha
  Plant response rating, Russian Thistle: 80
[8]; Preemergence, 250 g ai/ha
  Plant response rating, Russian Thistle: 100

## Nc1nc(C2CC2)nc(C=O)c1Br [Compound 26]
[1]; Postemergence, 125 g ai/ha
  Plant response rating, Pigweed: 60
[1]; Postemergence, 250 g ai/ha
  Plant response rating, Pigweed: 70
[1]; Preemergence, 125 g ai/ha
  Plant response rating, Pigweed: 65
[1]; Preemergence, 250 g ai/ha
  Plant response rating, Pigweed: 100
[2]; Postemergence, 125 g ai/ha
  Plant response rating, Chickweed: 45
[2]; Postemergence, 250 g ai/ha
  Plant response rating, Chickweed: 55
[2]; Preemergence, 125 g ai/ha
  Plant response rating, Chickweed: 60
[2]; Preemergence, 250 g ai/ha
  Plant response rating, Chickweed: 65
[3]; Postemergence, 125 g ai/ha
  Plant response rating, Mustard, Wild: 60
[3]; Postemergence, 250 g ai/ha
  Plant response rating, Mustard, Wild: 75
[3]; Preemergence, 125 g ai/ha
  Plant response rating, Mustard, Wild: 65
[3]; Preemergence, 250 g ai/ha
  Plant response rating, Mustard, Wild: 65
[4]; Postemergence, 125 g ai/ha
  Plant response rating, Buckwheat, Wild: 35
[4]; Postemergence, 250 g ai/ha
  Plant response rating, Buckwheat, Wild: 55
[4]; Preemergence, 125 g ai/ha
  Plant response rating, Buckwheat, Wild: 65
[4]; Preemergence, 250 g ai/ha
  Plant response rating, Buckwheat, Wild: 95
[5]; Postemergence, 125 g ai/ha
  Plant response rating, Galium: 70
[5]; Postemergence, 250 g ai/ha
  Plant response rating, Galium: 85
[5]; Preemergence, 125 g ai/ha
  Plant response rating, Galium: 85
[5]; Preemergence, 250 g ai/ha
  Plant response rating, Galium: 100
[6]; Postemergence, 125 g ai/ha
  Plant response rating, Lambsquarters: 40
[6]; Postemergence, 250 g ai/ha
  Plant response rating, Lambsquarters: 50
[6]; Preemergence, 125 g ai/ha
  Plant response rating, Lambsquarters: 60
[6]; Preemergence, 250 g ai/ha
  Plant response rating, Lambsquarters: 65
Kochia (Kochia scoparia); Postemergence, 125 g ai/ha
  Plant response rating, Kochia: 35
Kochia (Kochia scoparia); Postemergence, 250 g ai/ha
  Plant response rating, Kochia: 55
Kochia (Kochia scoparia); Preemergence, 125 g ai/ha
  Plant response rating, Kochia: 55
Kochia (Kochia scoparia); Preemergence, 250 g ai/ha
  Plant response rating, Kochia: 75
[7]; Postemergence, 125 g ai/ha
  Plant response rating, Wheat: 45
[7]; Postemergence, 250 g ai/ha
  Plant response rating, Wheat: 20
[7]; Preemergence, 125 g ai/ha
  Plant response rating, Wheat: 25
[7]; Preemergence, 250 g ai/ha
  Plant response rating, Wheat: 35
[8]; Postemergence, 125 g ai/ha
  Plant response rating, Russian Thistle: 40
[8]; Postemergence, 250 g ai/ha
  Plant response rating, Russian Thistle: 40
[8]; Preemergence, 250 g ai/ha
  Plant response rating, Russian Thistle: 100
